Results on 16 molecules are retold here after US5641480A, “Hair care compositions comprising heteroatom containing alkyl aldonamide compounds” (Lever Brothers Company, Division of Conopco, Inc., priority 1994, dated 1997).

Where two headings read alike, the source gives them in different places. Where only a bound is given, the exact number is not on record here.

A short description of series [1]: Ross-Miles foam height assay of aldonamides (Examples 81-84). The format is physicochemical. To be noted: 0.1% aldonamide, 40° C. (if not soluble, about 5°-10° C. above Krafft point), 0 ppm hardness; for Foam Height Final: after 10 minutes. How it is done: In the Ross-Miles method, 200 mL of a suffactant solution contained in a pipette of specified dimensions with a 2.9 -mm-i.d. orifice is allowed to fall 90 cm onto 50 mL of the same solution contained in a cylindrical vessel maintained at a given temperature by means of a water jacket. The height of the foam produced in the cylindrical vessel is read immediately after all the solution has run out of the pipette and then again after a given amount of time.
Using this method, the foam production (initial foam height in mm) and foam stability (final foam height after 10 minutes in mm) were measured at 0.1% aldonamtde concentration, 40° C. and 0 ppm (parts per million) hardness.

Series [2] in a line: Clarity of prototype shampoo compositions with sodium lauryl sulfate (Example 87). The format is physicochemical. The following applies: room temperature, 6 months. The method, then: (§1) The prototype shampoo composition is as follows:
(§2) The above formulations were prepared by admixing the above ingredients in listed order and heating the mixture to about 80° C. with rapid stirring. The mixture was then cooled to about 40° C., placed in a clear jar and stored at room temperature for 6 months.

Series [3] in a line: Krafft point determination. It is filed as physicochemical. The following applies: 0.1% in water. The method, then: The temperature at and above which surfactants begin to form micelles instead of precipitates is referred to as the Krafft point (Tk) and at this temperature the solubility of a surfactant becomes equal to its CMC (numerical value at which micelles are formed).
The Krafft point was measured by preparing 650 ml of a 0.1% or 1.0% dispersion of aldonamide in water by weight. If the surfactant was soluble at room temperature, the solution was slowly cooled to 0° C. […] (less than zero). If it precipitated out of solution, the temperature at which precipitation occurs was taken as the Krafft point.
If the surfactant was insoluble at room temperature, the dispersion was slowly heated until the solution became homogeneous. It was then slowly cooled until precipitation occurred. The temperature at which the surfactant precipitates out of solution upon cooling was taken as the Krafft point.

Series [4] is described as follows: Effectiveness in reducing surface tension (Example 93). The format is physicochemical. To be noted: 60 °C, estimated by extrapolation. The text has this: As mentioned before, surface tension reduction depends on the replacement of water molecules at the interface by surfactant molecules, therefore the effectiveness of a surfactant in reducing interfacial surface tension should reflect the saturated concentration of surfactant at the interface relative to that in bulk liquid phase. During this process the surface tension of water steadily decreases as bulk phase surfactant concentration increases. This will continue until the concentration reaches the critical micelle concentration (CMC), above which the surface tension remains nearly unchanged and the interface is saturated with surfactant. The surface tension at the CMC is therefore very close to the minimum interfacial tension or maximum surface pressure that the system can achieve. The surface pressure at this point, IIcmc, is a suitable measure of the effectiveness of a surfactant in reducing surface tension and is given as:
.PI.cmc 20+2.3nRT(Γmax) log [CMC/C20 ]
n=1 which represents the number of ions whose surface concentration changes with the change in liquid phase suffactant concentration.
CMC/C20 =is the ratio of the critical micelle concentration to the bulk phase surfactant concentration necessary to reduce the surface tension of water by 20 dyn/cm.

Series [5] in a line: Effectiveness of adsorption, surface excess concentration at surface saturation (Example 94). To be noted: 60 °C, estimated by extrapolation. It is filed as physicochemical. The source says: The surface excess concentration at surface saturation (Γmax) is defined as a measure of the effectiveness of surfactant adsorption at the water/air interface and represents the maximum value to which adsorption can be obtained. Effectiveness of adsorption is related to the interfacial area occupied by the surfactant molecule. The smaller the effective cross-sectional area of a surfactant at the interface, the greater its effectiveness of adsorption. The effectiveness of adsorption is an important factor in determining surfactant properties such as detergency, foaming, wetting or emulsification. While not wishing to be bound by theory, it is believed that surfactants that absorb effectively at the interface tend have tightly packed coherent interfacial films and often provide better surfactant benefits than those with loosely packed noncoherent films. The effectiveness of adsorption of C8 /C10 oxypropyl D-gluconamide was determined using the Gibbs equation given as: […]
ergs/cm^2 (which is equivalent to the slope of a plot of γ

Series [6] can be described thus: Area per molecule at the water/air interface (Example 95). It is filed as physicochemical. The following applies: 60 °C, estimated by extrapolation. The source says: The area per molecule of a surfactant at the water/air interface provides information on the degree of packing and the orientation of the adsorbed surfactant molecule. While not wishing to be bound by theory, it is believed that surfactants that have small area per molecule values tend to pack more closely at the interface than those with large area per molecule values. From the surface excess concentration at surface saturation (Γmax), the area per molecule (am) of C8 /C10 oxypropyl D-gluconamide was determined and is given by:
am =1×10^16 /Nav Γmax

For series [7] the following is noted: 25 °C, Rosen; cited from earlier work.
The conditions of series [8]: Rosen, cited from earlier work.
The conditions of series [9]: Rosen, cited from earlier work. The source holds these as a separate data set.
The conditions of series [10]: Rosen, cited from earlier work. The source holds these as a separate data set.
Series [11] is described as follows: Viscosity of prototype shampoo compositions with sodium lauryl sulfate, Brookfield Digital Viscometer (Example 88). The format is physicochemical. The following applies: vs no thickener. The method, then: as §1, §2
It is well known that the viscosity of a liquid composition comprising of anionic surfactant can be modified by the addition of inorganic salts, such as sodium chloride. However, in the absence of an organic modifier, high levels of salt may be necessary to achieve the required viscosity which may lead to problems of storage at cold temperature or even salting out certain ingredients. In practice, however, the viscosity of a liquid composition is modified by the simultaneous addition of thickener and small amounts of inorganic salt (viscosity cobuilder). The combined effect is greater than either one alone. The viscosity of the above prototype shampoo composition comprising various amounts of heteroatom containing alkyl aldonamide compound is as follows: […]

Where [12] appears, read: 3.0% thickener in […] sodium lauryl sulfate shampoo.
Setting [13] is: 5.0% thickener in […] sodium lauryl sulfate shampoo.

As for Cocoaminopropyl D-Gluconamide, in [1], the “Foam Height Initial” value is listed as 186 mm and the “Foam Height Final” value is given as 182 mm. Besides, in series [2] (setting [12]), the “Appearance (Time)” value is “Clear”. Further, in series [2] (setting [13]), the “Appearance (Time)” value was “Clear”.

For the molecule `CCCCCCCCCNC(=O)[C@H](O)[C@@H](O)[C@H](O)[C@H](O)CO` [C9 D-Gluconamide], the “Foam Height Initial” value in series [1] was found to be 0 mm. The “Foam Height Final” value in series [1] worked out at 0 mm. In addition, the “Appearance (Time)” value in [2] (4.0% thickener in […] sodium lauryl sulfate shampoo) and in series [2] (setting [13]) was “Precipitate (2 weeks)” in each case.

Turning to `CCCCCCCCCCNC(=O)[C@H](O)[C@@H](O)[C@H](O)[C@H](O)CO` [C10 D-Gluconamide], in series [1], the “Foam Height Initial” value is 199 mm and the “Foam Height Final” value turned out to be 6 mm. Further, in [2] (setting [12]), the “Appearance (Time)” value is on record as “Precipitate (1 week)”. In series [2] (setting [13]), the “Appearance (Time)” value was “Precipitate (5 days)”.

For the molecule `CCCCCCCCCCCCOCCCNC(=O)[C@H](O)[C@@H](O)[C@H](O[C@H]1O[C@H](CO)[C@@H](O)[C@H](O)[C@H]1O)[C@H](O)CO` [C12 Oxypropyl D-Maltobionamide, Dodecyloxypropyl D-Maltobionamide], in [1], the “Foam Height Initial” value is recorded as 163 mm and the “Foam Height Final” value amounted to 155 mm. In addition, in series [3], the “Krafft Point (0.1%)” value was less than 0 °C.

In the case of `CCCCCCCCCCCCOCCOCCOCCO` [Dodecyltri(oxyethylene) Ether], the “.PI.cmc (surface pressure)” value in [4] is recorded as 41.4 dyn/cm; in [8] (25 °C), 44.1 dyn/cm; in [8] (40 °C), 43.1 dyn/cm. For the same molecule, the “Γmax (surface excess concentration at surface saturation)” value was 3.83 × 10^-10 mole/cm^2 in series [5], 3.98 × 10^-10 mole/cm^2 in [9] (25 °C) and 3.90 × 10^-10 mole/cm^2 in [9] (40 °C). Besides, the “am (area per molecule)” value in series [6] was 45.4 Å^2; in [10] (25 °C), 41.7 Å^2; in series [10] (40 °C), 42.5 Å^2. Besides, in series [7], the pC20 is 5.34. Besides, the CMC/C20 in series [8] (25 °C) is on record as 11.4.

Regarding `CCCCCCCCCCCCOCCCNC(=O)[C@H](O)[C@@H](O)[C@H](O[C@@H]1O[C@H](CO)[C@H](O)[C@H](O)[C@H]1O)[C@H](O)CO` [C12 Oxypropyl D-Lactobionamide, Dodecyloxypropyl D-Lactobionamide], in series [1], the “Foam Height Initial” value came out at 165 mm and the “Foam Height Final” value worked out at 154 mm. Besides, the “Krafft Point (0.1%)” value in series [3] was less than 0 °C. Moreover, the “Increase (viscosity)” value in series [11] (3.0% thickener) is given as 23 ×. Further, the “Increase (viscosity)” value in [11] (5.0% thickener) is 97 ×.

For the molecule “Dodecyl to Pentadecyloxypropylaminopropyl D-Lactobionamide”, in series [1], the “Foam Height Initial” value is listed as 173 mm and the “Foam Height Final” value is reported as 169 mm. In addition, in series [3], the “Krafft Point (0.1%)” value is less than 0 °C.

Regarding `CCCCCCCCCCCCOCCCNC(=O)[C@H](O)[C@@H](O)[C@H](O)[C@H](O)CO` [C12 Oxypropyl D-Gluconamide], the “Foam Height Initial” value in [1] was 200 mm. The “Foam Height Final” value in [1] stood at 110 mm. For the same molecule, the “Appearance (Time)” value in [2] (setting [12]) is “Clear”; in series [2] (setting [13]) it was “Precipitate (5 months)”. Further, the “Increase (viscosity)” value in series [11] (3.0% thickener) is on record as 120 ×; in series [11] (5.0% thickener) it was 1373 ×.

In the case of `CCCCCCCCCCCCCCOCCCNC(=O)[C@H](O)[C@@H](O)[C@H](O[C@@H]1O[C@H](CO)[C@H](O)[C@H](O)[C@H]1O)[C@H](O)CO` [C14 Oxypropyl D-Lactobionamide, Tetradecyloxypropyl D-Lactobionamide], in [1], the “Foam Height Initial” value was found to be 163 mm and the “Foam Height Final” value worked out at 154 mm. Also, the “Krafft Point (0.1%)” value in series [3] is less than 0 °C.

Turning to `CCCCCCCCCCCCCCNC(=O)[C@H](O)[C@@H](O)[C@H](O[C@@H]1O[C@H](CO)[C@H](O)[C@H](O)[C@H]1O)[C@H](O)CO` [C14 D-Lactobionamide], in series [1], the “Foam Height Initial” value amounted to 141 mm and the “Foam Height Final” value came to 59 mm. For the same molecule, in series [3], the “Krafft Point (0.1%)” value is 18 °C.

Regarding Coco D-Gluconamide, the “Appearance (Time)” value in [2] (setting [12]) is “Precipitate (1 day)”; in [2] (setting [13]) it was “Precipitate (2 hours)”.

On to `CCCCCCCCCNC(=O)[C@H](O)[C@@H](O)[C@H](O[C@@H]1O[C@H](CO)[C@H](O)[C@H](O)[C@H]1O)[C@H](O)CO` [C9 D-Lactobionamide, Nonyl D-Lactobionamide], for which, in [1], the “Foam Height Initial” value turned out to be 0 mm and the “Foam Height Final” value came out at 0 mm. Moreover, the “Krafft Point (0.1%)” value in series [3] worked out at 42 °C.

In the case of Cocoaminopropyl D-Lactobionamide, in [1], the “Foam Height Initial” value stood at 171 mm and the “Foam Height Final” value turned out to be 168 mm. In addition, in series [3], the “Krafft Point (0.1%)” value was less than 0 °C.

`CCCCCCCC/C=C\CCCCCCCCNCCCNC(=O)[C@H](O)[C@@H](O)[C@H](O[C@@H]1O[C@H](CO)[C@H](O)[C@H](O)[C@H]1O)[C@H](O)CO` [Oleylaminopropyl D-Lactobionamide]: in series [1], the “Foam Height Initial” value turned out to be 169 mm and the “Foam Height Final” value is 165 mm. In addition, the “Krafft Point (0.1%)” value in [3] is less than 0 °C.

As to `CCCCCCCCCCCNC(=O)[C@H](O)[C@@H](O)[C@H](O[C@@H]1O[C@H](CO)[C@H](O)[C@H](O)[C@H]1O)[C@H](O)CO` [C11 D-Lactobionamide], in [1], the “Foam Height Initial” value is listed as 0 mm and the “Foam Height Final” value is recorded as 0 mm. The “Krafft Point (0.1%)” value in series [3] was found to be 61 °C.

Take “Octyl/Decyloxypropyl D-Lactobionamide [C8 /C10 Oxypropyl D-Lactobionamide]”: the “Foam Height Initial” value in series [1] is recorded as 168 mm. Further, in series [1], the “Foam Height Final” value worked out at 158 mm. In addition, the “Krafft Point (0.1%)” value in series [3] was less than 0 °C. In addition, the “Appearance (Time)” value in [2] (setting [12]) and in series [2] (setting [13]) was “Clear” in each case.
